Test [1] concerns SH-SY5Y and SK-N-BE(2) cells. The experiment in a line: Hanging-drop assay for spheroid formation. It is filed as cell-based, human. As to conditions: day 12. How it is done: 3-D in vitro hanging drop assay was carried out to detect the SsnB effect in neuroblastoma spheroid formation. Neuroblastoma cells were prepared as single cell suspension in complete culture medium (DMEM+10% FBS) without or with SsnB (1 and 10 μM). Twenty microliter drops of each prepared cell suspension containing 20,000 cells/drop were pipetted into the inner side of the lid of a 60 mm diameter tissue culture dish. The lid was gently inverted and placed on top of the culture dish filled with 5 ml of sterile 1×PBS to humidify the culture chamber. The drops were incubated under tissue culture conditions (at 37° C. and 5% CO2) allowing the cells to form aggregate at the base of the droplet. The cells in each droplet were photographed using Olympus SZX2 stereo microscope (Olympus America Inc., Center Valley, Pa.).
As SsnB inhibited the formation of neuroblastoma colony in anchorage-independent agarose gel assay, the ability of SsnB to inhibit the initiation of neuroblastoma tumors was tested in a hanging drop assay method. In the hanging drop assay the cells under the force of gravity and surface tension start accumulating at the bottom of the hanging drop and join together to form a spheroid. […]

Test [2] has as its system N-myc in IMR-32, NGP and SK-N-BE(2) cells. The experiment in a line: N-myc protein level by Western blotting. Format: cell-based, human. How it is done: After treatment with SsnB, cells were collected, washed with 1×PBS, and lysed with 1× cell lysis buffer (Cell Signaling Technology, Danvers, Mass.) containing phenylmethylsulfonyl fluoride (PMSF) and protease inhibitors (aprotinin and leupeptin) for 30 min on ice, and centrifuged at 12000×rpm for 10 min at 4° C. Supernatant (total cell protein) was collected and stored at −80° C. Protein concentration was determined by bicinchoninic acid method using BCA protein assay kit (Pierce/ThermoScientific, Waltham, Mass.). Equal amount of proteins were diluted with 5× Laemmli samples loading buffer and boiled for five minutes. The proteins were subjected to sodium dodecyl sulfate (SDS)-polyacrylamide gel electrophoresis and analyzed by Western blots. Briefly, after electrophoresis, proteins were transferred on polyvinylidene difluoride (PVDF) membrane at 100 volt for 3 h in cold room. […] Signals were detected by chemiluminiscence detection kit (Pierce/Thermo Fisher Scientific, Rockford, Ill.). […]
The level of N-myc proteins was evaluated from 2 days (IMR-32), 3 days (NGP cells) or 4 days (SK-N-BE(2) cells) SsnB-treated N-myc amplified neuroblastoma cells by Western blotting, and protein signal intensity was measured by ImageJ programme and plotted. […]
(In general: Immunoblotting shows a protein as a band on a membrane.)

Test [3] in a line: ROS-generating activity in cell-free system (H2DCFDA, HRP). Format: biochemical. The note with it: for increase of OD value vs H2DCFDA+HRP reaction: SsnB 10 μM + H2DCFDA 25 μM + HRP 5 units/ml. How it is done:
FIG. 2D and FIG. 2E illustrate the ROS generating capacity of SsnB evaluated in a cell-free system containing H2DCFDA (25 μM), horseradish peroxidase (HRP, 5 units/ml), SsnB (10 μM) and glutathione (GSH, 0.25 or 2.5 μM) alone or in various combinations. Optical density (O.D.) at 540 nm were taken at different time points and plotted.
In a reaction system, after the removal of acetate group by cellular esterases and oxidation by reactive oxygen species, the non-fluorescent carboxy-H2DCFDA dye is oxidized to fluorescent molecule carboxy-DCF. To measure the ROS-generating activity of SsnB, the oxidation of carboxy-H2DCFDA dye was monitored in a cell-free system containing carboxy-H2DCFDA dye, horseradish peroxidase (HRP) and SsnB at 540 nm. HRP was used to supply esterase since without esterase carboxy-H2DCFDA is not sensitive to oxidant. […] After addition of HRP (5 units/ml) in the reaction mixture containing SsnB (10 μM)+H2DCFDA dye (25 μM), the OD value increased by 2% in the first 240 sec and further increased by 8% after 15 min compared to H2DCFDA+HRP reaction, indicating the increased oxidation of H2DCFDA to the fluorescent compound.

`O=c1occ2c3c(ccc(O)c13)Oc1ccc(O)cc1-2` [SsnB, 8,5′-dihydroxy-4-phenyl-5,2′-oxidoisocoumarin]: the spheroid formation result is recorded as “compact cell clusters were formed” in test [1] (SsnB 1 μM) and “unable to aggregate to form compact spheroids” in test [1] (SsnB 10 μM). For the same compound, the “reduction in N-myc protein expression” value in test [2] (SsnB 1 μM, nonsignificant vs control) is listed as “not observed”. Also, in test [2] (SsnB 10 μM, 2 days (IMR-32), 3 days (NGP), 4 days (SK-N-BE(2))), the N-myc protein expression entry is given as “inhibited the expression of N-myc protein”. Besides, the results for the “increase of OD value vs H2DCFDA+HRP reaction” value in test [3] (after 15 min) and in test [3] (first 240 sec) were 8% and 2%, respectively. In addition, in test [3] (SsnB 10 μM + H2DCFDA 25 μM, without HRP), the “optical density at 540 nm” value is “remained constant”.

Values taken from patent US9446019B2, “Sparstolonin B based pharmaceutical agent for neuroblastoma treatment” (University of South Carolina, priority 2013, dated 2016).
